Reference: patent EP0624584B1, “Piperazine derivatives useful as calmodulin inhibitors” (DAIICHI PHARMACEUTICAL CO., LTD., priority 1993, dated 1994)

Assays:
[1] = target: calmodulin-depending cyclic nucleotide phosphodiesterase (PDE); test: Calmodulin (CaM) inhibitory activity: inhibition of Ca/calmodulin-dependent PDE activity; assay type: biochemical; settings: concentration showing 50% inhibition of PDE activity potentiated by CaM; CaM and PDE from bovine brain, [3H]-cGMP, 30°C, 10 minutes
Method: The calmodulin inhibitory activity of a compound was evaluated by using its effect of inhibiting calmodulin-depending cyclic nucleotide phosphodiesterase (PDE) as an index. The assay for PDE inhibitory activity was carried out by the following procedure described by Thompson (Advances in Cyclic Nucleotide Research, 10, 69, 1979) with a modification. The first-stage incubation was carried out at 30°C for 10 minutes with the following reaction mixture: 50 mM Tris-HCl buffer (pH 7.5), 5 mM MgCl2, 1 mg/ml bovine serum albumin, CaM from bovine brain, [^3H]-cGMP, 1 mM CaCl2 or 1 mM EGTA, PDE from bovine brain, and a test compound in a total volume of 0.5 ml. After the incubation, the mixture was heated on a boiling water bath for 1 minute. Then, 50 µl of snake venom (1 mg/ml) was added to the reaction mixture and the whole mixture was incubated at 30°C for 10 minutes. After the incubation, 0.5 ml of AG1-X2 resin (1:1 slurry in water) was added to the mixture and centrifuged at 3000Xrpm for 20 min. The radioactivity of the supernatant solution was measured by a liquid scintillation counter. The IC50 value was determined as the concentration showing 50% inhibition of PDE activity potentiated by CaM.

[2] = test system: Nitrogen-induced Hypoxia Model in Mouse; test: Activity on nitrogen-induced hypoxia model in mouse; assay type: in vivo; settings: 30 mg/kg, p.o.; 60 minutes after administration; time to respiratory standstill over that of a control group (100%)
Method: Nine to ten mice per group were each orally given […] of a test compound. After 60 minutes from the administration, each mouse was put in a 500 mℓ-volume transparent container having a vent hole, and nitrogen gas was introduced into the container at a rate of 5000 mℓ/min. The time from the start of nitrogen introduction to respiratory standstill was measured, and a rate of increase of the time over that of a control group (100%) was obtained.

Compound | IC50 [1] | Rate of Increase of Survival Time [2]
NCCCCCCNS(=O)(=O)c1cccc2c(Cl)cccc12 [Example W-7, reference compound] | 33.5 µM | –
COc1ccc(Cn2nc(CCN3CCN(c4cccc(Cl)c4C)CC3)c3cc(OC)c(OC)cc32)cc1OC [Example 12, 3-(2-(4-(3-Chloro-2-methylphenyl)-1-piperazinyl)-ethyl)-5 6-dimethoxy-1-(3,4-dimethoxybenzyl)-1H-indazole] | 3.1 µM | 19.2%
COc1cc2c(CCN3CCN(c4cccc(Cl)c4C)CC3)nn(Cc3c[nH]cn3)c2cc1OC [Example 15, 3-(2-(4-(3-Chloro-2-methylphenyl)-1-piperazinyl)-ethyl)-5,6-dimethoxy-1-(4-imidazolylmethyl)-1H-indazole] | 5.5 µM | 15.1%
